Measurements: US9238653B2, “Antimalarial agents that are inhibitors of dihydroorotate dehydrogenase” (BOARD OF REGENTS, THE UNIVERSITY OF TEXAS SYSTEM, priority 2009, dated 2016)
Read-outs that look alike come from different tables or passages of the source.

Assays:
pfDHOD = pfDHOD (Plasmodium falciparum (isolate 3D7), UniProt Q08210); test: DHOD enzyme inhibition, colorimetric DCIP reduction or direct orotic acid assay; format: biochemical
Procedure: Reactions are initiated by addition of enzyme to a final concentration in the range of about 5 nM to about 50 nM while maintaining the temperature of a circulating water bath at 25° C.
Assay solutions were prepared as discussed above, except that DCIP is not present and the solution is depleted of oxygen by the inclusion of an oxidase/reductase system, such as, 0.1 mg/ml of glucose oxidase, 0.02 mg/ml catalase and 50 mM glucose. The data obtained was fitted to equation 1, to determine the IC50 values of the representative compounds.

P. falciparum 3D7 = test: 3H-hypoxanthine uptake in P. falciparum-infected erythrocytes; format: cell-based, Plasmodium falciparum; settings: read-out: EC50 P. falciparum 3D7
[1] = Plasmodium falciparum, 3D7, Erythrocyte
[2] = Plasmodium falciparum, 3D7, Erythrocyte, 3D7 strain

pfDHOD, sequence (Q08210 24-569 limits assumed): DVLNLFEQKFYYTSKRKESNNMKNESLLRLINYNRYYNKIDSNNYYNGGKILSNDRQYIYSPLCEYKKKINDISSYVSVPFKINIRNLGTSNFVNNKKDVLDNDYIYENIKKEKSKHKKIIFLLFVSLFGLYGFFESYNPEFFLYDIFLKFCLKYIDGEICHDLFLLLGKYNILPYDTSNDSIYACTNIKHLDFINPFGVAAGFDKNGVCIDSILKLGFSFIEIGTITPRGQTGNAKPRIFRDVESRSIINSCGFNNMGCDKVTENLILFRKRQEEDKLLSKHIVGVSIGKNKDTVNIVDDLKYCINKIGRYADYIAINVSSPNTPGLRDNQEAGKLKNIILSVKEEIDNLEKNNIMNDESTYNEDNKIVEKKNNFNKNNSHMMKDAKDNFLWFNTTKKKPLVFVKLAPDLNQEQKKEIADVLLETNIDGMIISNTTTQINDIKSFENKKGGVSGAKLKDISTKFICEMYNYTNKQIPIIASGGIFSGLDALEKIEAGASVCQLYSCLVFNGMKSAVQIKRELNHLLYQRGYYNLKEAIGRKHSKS

SMILES | IC50 (pfDHOD) | EC50 (P. falciparum 3D7; [1]) | EC50 (P. falciparum 3D7; [2]) | EC50 (P. falciparum 3D7; 3D7 strain) | melting point
Cc1cc(NC2CCc3cc(F)ccc3C2)n2ncnc2n1 (stereo not shown) | 630 nM | 2500 nM | – | – | –
Cc1cc(Nc2ccc(S(F)(F)(F)(F)F)cc2)n2nc(C(F)(F)F)nc2n1 [drawing 344] | 130 nM | 140 nM | – | – | –
Cc1cc(Nc2ccc(Cl)cc2)n2nc(C(F)(F)F)nc2n1 | 90 nM | – | 260 nM | – | –
Cc1ccc(Nc2c3c(nc4ncnn24)CCC3)cc1F | – | 8300 nM | – | – | –
CCc1c(C)nc2ncnn2c1Nc1ccc(C(C)C)cc1 | 1660 nM | – | > 10000 nM | – | –
Cc1cc(Nc2ccc(C(F)(F)F)cc2)n2nc(C(C)C)nc2n1 | 110 nM | 98 nM | – | – | –
Cc1cc(Nc2ccc(C(F)(F)F)cc2)n2ccnc2n1 | 77 nM | – | 330 nM | – | –
Cc1cc(NC2Cc3ccccc3C2)n2ncnc2n1 | 500 nM | – | 2400 nM | – | –
Cc1cc(Nc2ccc(CC(F)(F)F)cc2)n2ncnc2n1 [drawing 337] | 2470 nM | – | – | – | –
Cc1cc(NC2Cc3ccc(F)cc3C2)n2ncnc2n1 (stereo not shown) | 610 nM | 1300 nM | – | – | –
Cc1cc(Nc2ccc(C(F)(F)F)c(C(F)(F)F)c2)n2ncnc2n1 | 540 nM | 2300 nM | – | – | –
Cc1cc(Nc2ccc(S(F)(F)(F)(F)F)cc2)n2nc(C(C)(F)F)nc2n1 | – | 19 nM | – | – | –
Cc1cc(Nc2ccc(C(F)(F)F)cc2)n2nc(C3CC3)nc2n1 | 140 nM | 150 nM | – | – | –
Cc1cc(Nc2ccc(SC(F)(F)F)cc2)n2ncnc2n1 | 610 nM | – | > 4000 nM | – | –
Cc1cc(Nc2cc(F)c(C(F)(F)F)c(F)c2)n2nc(C(F)(F)F)nc2n1 | 22 nM | – | 4.8 nM | – | –
Cc1cc(Nc2ccc(C)c(Cl)c2)n2nc(C(F)(F)F)nc2n1 | 130 nM | – | 800 nM | – | –

SMILES | IC50 (pfDHOD) | EC50 (P. falciparum 3D7; [1]) | EC50 (P. falciparum 3D7; [2]) | EC50 (P. falciparum 3D7; 3D7 strain) | melting point
Cc1cc(Nc2ccc(C(F)(F)F)c(F)c2)n2nc(C(C)(F)F)nc2n1 | 35 nM | – | 9.3 nM | – | –
Cc1cc(Nc2ccc(C(F)(F)F)cc2)n2nc(C(C)(F)F)nc2n1 | 38 nM | – | 7 nM | – | –
Cc1cc(Nc2ccc3c(c2)CCCC3)n2ncnc2n1 [drawing 353] | 32 nM | – | – | 200 nM | –
Cc1cc(NC2Cc3ccc(Br)cc3C2)n2ncnc2n1 (stereo not shown) [drawing 343] | 990 nM | 6600 nM | – | – | –
Cc1cc(Nc2ccc3c(c2)CCC3)n2ccnc2n1 [drawing 336] | 130 nM | – | 600 nM | – | –
Cc1cc(Nc2ccc(C(F)(F)F)cc2)n2nc(C(F)(F)F)nc2n1 | – | – | – | – | 124 to 126 °C
Cc1cc(Nc2ccc(S(F)(F)(F)(F)F)cc2)n2nc(C(C)C)nc2n1 | – | 420 nM | – | – | –
Cc1cc(Nc2cc(F)c(C(F)(F)F)c(F)c2)n2nc(C(C)(F)F)nc2n1 | 20 nM | – | 30 nM | – | –
Cc1cc(Nc2ccc(Cl)cc2)n2nc(C(C)(F)F)nc2n1 | 28 nM | – | 33 nM | – | –
Cc1cc(Nc2ccc(C(C)(C)C)c(F)c2)n2ncnc2n1 | 60 nM | – | 100 nM | – | –
Cc1cc(C)cc(Nc2cc(C)nc3nc(C(F)(F)F)nn23)c1 | 220 nM | – | 700 nM | – | –
Cc1cc(Nc2ccc(Cl)c(F)c2)n2ncnc2n1 [drawing 338] | 510 nM | 3500 nM | – | – | –
Cc1cc(NC2CCc3cc(Cl)ccc3C2)n2ncnc2n1 (stereo not shown) | 670 nM | – | 10000 nM | – | –
Cc1cc(Nc2ccc(CC(F)(F)F)cc2)n2ncnc2n1 [Example 25, 5-Methyl-N-(4-(2,2,2-trifluoroethyl)phenyl)-[1,2,4]triazolo[1,5-a]pyrimidin-7-amine] | – | – | – | – | 204 °C
Cc1cc(NC2Cc3ccc(Br)cc3C2)n2ncnc2n1 (stereo not shown) | – | – | – | – | 164 °C
